SMILES strings stand for the structures. A value given as a limit tells only on which side of the number the result lay.

The target of this assay is T1, MAPKAPK5 (Homo sapiens, UniProt Q8IW41).
T1 sequence (Q8IW41 1-471 isoform Q8IW41-2): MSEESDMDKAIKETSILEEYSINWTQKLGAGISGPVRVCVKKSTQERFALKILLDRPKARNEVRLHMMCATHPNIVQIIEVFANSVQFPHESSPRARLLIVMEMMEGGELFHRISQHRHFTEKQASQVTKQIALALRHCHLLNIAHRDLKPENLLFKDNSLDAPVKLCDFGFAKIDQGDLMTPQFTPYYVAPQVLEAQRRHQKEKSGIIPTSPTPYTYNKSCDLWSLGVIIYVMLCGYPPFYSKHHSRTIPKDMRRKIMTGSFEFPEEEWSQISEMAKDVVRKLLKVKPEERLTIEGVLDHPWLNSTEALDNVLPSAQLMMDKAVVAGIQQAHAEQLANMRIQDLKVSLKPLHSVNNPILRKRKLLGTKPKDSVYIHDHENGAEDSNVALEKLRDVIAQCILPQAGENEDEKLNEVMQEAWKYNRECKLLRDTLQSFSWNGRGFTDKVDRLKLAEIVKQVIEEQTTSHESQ
Nature of the assay: MAPKAP-K5 assay (FlashPlate, 33P-ATP). The class given is biochemical. Particulars: 0.6 μM ATP; 3 μM peptide substrate; room temperature 30 minutes. Here is the method: 3 μM MAPKAP-K5 peptide substrate

`O=C1NCc2cc(-c3cnc(Nc4nc(CN5CCOCC5)cs4)c4nccn34)ccc21` [Example 1, 5-(8-(4-(morpholinomethyl)thiazol-2-ylamino)imidazo[1,2-a]pyrazin-5-yl)isoindolin-1-one] returned an IC50 of 0.101 to 0.5 µM.

For `c1nc2c(Nc3nc(CN4CCOCC4)cs3)ncc(-c3cn[nH]c3)n2n1` [Example 3, N-(5-(1H-pyrazol-4-yl)-[1,2,4]triazolo[1,5-a]pyrazin-8-yl)-4-(morpholinomethyl)thiazol-2-amine], the half-inhibitory concentration (IC50) was above 1 µM.

In the case of `NC(=O)c1cc(-c2cnc(Nc3nc(CN4CCCCC4)cs3)c3ncnn23)co1` [Example 4, 4-(8-(4-(piperidin-1-ylmethyl)thiazol-2-ylamino)-[1,2,4]triazolo[1,5-a]pyrazin-5-yl)furan-2-carboxamide], the IC50 is 0.001 to 0.1 µM.

As to `O=C1NCc2cc(-c3cnc(Nc4nccs4)c4nccn34)ccc21` [Example 6, 5-(8-(thiazol-2-ylamino)imidazo[1,2-a]pyrazin-5-yl)isoindolin-1-one], the IC50 fell in the range of 0.101 to 0.5 µM.

Take `c1csc(Nc2ncc(-c3cn[nH]c3)n3ccnc23)n1` [Example 7, N-(5-(1H-pyrazol-4-yl)imidazo[1,2-a]pyrazin-8-yl)thiazol-2-amine]: the IC50 is above 1 µM.

`O=C1NCc2cc(-c3cnc(Nc4nc(CN5CCCCC5)cs4)c4nccn34)ccc21` [Example 9, 5-(8-(4-(piperidin-1-ylmethyl)thiazol-2-ylamino)imidazo[1,2-a]pyrazin-5-yl)isoindolin-1-one]: the IC50 is 0.001 to 0.1 µM.

As for `Cc1nc(Nc2ncc(-c3ccc4c(c3)CNC4=O)n3ccnc23)sc1C(=O)N(C)C` [Example 10, N,N,4-trimethyl-2-(5-(1-oxoisoindolin-5-yl)imidazo[1,2-a]pyrazin-8-ylamino)thiazole-5-carboxamide], the IC50 is 0.101 to 0.5 µM.

Molecule `Cc1cnc(Nc2ncc(-c3ccc4c(c3)CNC4=O)n3ccnc23)s1` [Example 11, 5-(8-(5-methylthiazol-2-ylamino)imidazo[1,2-a]pyrazin-5-yl)isoindolin-1-one] displayed an IC50 of 0.501 to 1 µM.

In turn, `O=C1NCc2cc(-c3cnc(Nc4nc5c(s4)CCC5)c4nccn34)ccc21` [Example 12, 5-(8-(5,6-dihydro-4H-cyclopenta[d]thiazol-2-ylamino)imidazo[1,2-a]pyrazin-5-yl)isoindolin-1-one] registered an IC50 above 1 µM.

On to `O=C1NCc2cc(-c3cnc(Nc4ncc(C(=O)N5CCOCC5)s4)c4nccn34)ccc21` [Example 13, 5-(8-(5-(morpholine-4-carbonyl)thiazol-2-ylamino)imidazol[1,2-a]pyrazin-5-yl)isoindolin-1-one], for which the IC50 fell in the range of 0.501 to 1 µM.

`O=C1NCc2cc(-c3cnc(Nc4nnc(CCN5CCCCC5)s4)c4nccn34)ccc21` [Example 14, 5-(8-(5-(2-(piperidin-1-yl)ethyl)-1,3,4-thiadiazol-2-ylamino)imidazo[1,2-a]pyrazin-5-yl)isoindolin-1-one] registered an IC50 of 0.501 to 1 µM.

Turning to `c1cn2c(-c3cn[nH]c3)cnc(Nc3ncc(CN4CCOCC4)s3)c2n1` [Example 15, N-(5-(1H-pyrazol-4-yl)imidazo[1,2-a]pyrazin-8-yl)-5-(morpholinomethyl)thiazol-2-amine], the IC50 was above 1 µM.

With `O=C1NCc2cc(-c3cnc(Nc4ncc(CN5CCOCC5)s4)c4nccn34)ccc21` [Example 16, 5-(8-(5-(morpholinomethyl)thiazol-2-ylamino)imidazo[1,2-a]pyrazin-5-yl)isoindolin-1-one], the IC50 fell in the range of 0.101 to 0.5 µM.

In the case of `CN(C)Cc1cnc(Nc2ncc(-c3cn[nH]c3)n3ccnc23)s1` [Example 17, N-(5-(1H-pyrazol-4-yl)imidazo[1,2-a]pyrazin-8-yl)-5-((dimethylamino)methyl)thiazol-2-amine], the half-inhibitory concentration (IC50) was above 1 µM.

`CC(C)N1CCN(Cc2cnc(Nc3ncc(-c4ccc5c(c4)CNC5=O)n4ccnc34)s2)CC1` [Example 18, 5-(8-(5-((4-isopropylpiperazin-1-yl)methyl)thiazol-2-ylamino)imidazo[1,2-a]pyrazin-5-yl)isoindolin-1-one] registered an IC50 of 0.101 to 0.5 µM.

Take `O=C1NCc2cc(-c3cnc(Nc4nncs4)c4nccn34)ccc21` [Example 19, 5-(8-(1,3,4-thiadiazol-2-ylamino)imidazo[1,2-a]pyrazin-5-yl)isoindolin-1-one]: the IC50 was above 1 µM.

As to `CN1CCN(c2nnc(Nc3ncc(-c4ccc5c(c4)CNC5=O)n4ccnc34)s2)CC1` [Example 20, 5-(8-(5-(4-methylpiperazin-1-yl)-1,3,4-thiadiazol-2-ylamino)imidazo[1,2-a]pyrazin-5-yl)isoindolin-1-one], the half-maximal inhibitory concentration (IC50) is 0.501 to 1 µM.

The molecule `CC(C)N1CCN(C(=O)c2cnc(Nc3ncc(-c4cn[nH]c4)n4ccnc34)s2)CC1` [Example 23] yielded an IC50 above 1 µM.

For the molecule `O=C1NCc2cc(-c3cnc(Nc4ncc(CN5CCCCC5)s4)c4nccn34)ccc21` [Example 24, 5-(8-(5-(piperidin-1-ylmethyl)thiazol-2-ylamino)imidazo[1,2-a]pyrazin-5-yl)isoindolin-1-one], the IC50 is above 1 µM.

`c1nc2c(Nc3nc(CN4CCCCC4)cs3)ncc(-c3cn[nH]c3)n2n1` [Example 25, N-(5-(1H-pyrazol-4-yl)-[1,2,4]triazolo[1,5-a]pyrazin-8-yl)-4-(piperidin-1-ylmethyl)thiazol-2-amine] displayed an IC50 above 1 µM.

Source of the values: US9006237B2, “Fused pyrazine compounds useful for the treatment of degenerative and inflammatory diseases” (Janssen Pharmaceutica NV, priority 2007, dated 2015).
